Laboratory results published in US20090036420A1, “BENZAMIDE DERIVATIVES AND THEIR USE FOR TREATING CNS DISORDERS” (priority 2007, published 2009).

The molecules below were run against T1, TAAR1 (Mus musculus, UniProt Q923Y8) (assay: Radioligand binding assay on membranes of HEK293 cells stably expressing TAAR1). Conditions: Ki value (μM) in mouse, radioligand [3H]-rac-2-(1,2,3,4-tetrahydro-1-naphthyl)-2-imidazoline 60 nM, 4° C., 30 min.
T1 construct: expressed in transfected cells; host or cells: HEK293 cells (ATCC #CRL-1573), stably transfected with pIRESneo2 expression plasmid; membrane preparation
T1 sequence (Q923Y8 whole entry): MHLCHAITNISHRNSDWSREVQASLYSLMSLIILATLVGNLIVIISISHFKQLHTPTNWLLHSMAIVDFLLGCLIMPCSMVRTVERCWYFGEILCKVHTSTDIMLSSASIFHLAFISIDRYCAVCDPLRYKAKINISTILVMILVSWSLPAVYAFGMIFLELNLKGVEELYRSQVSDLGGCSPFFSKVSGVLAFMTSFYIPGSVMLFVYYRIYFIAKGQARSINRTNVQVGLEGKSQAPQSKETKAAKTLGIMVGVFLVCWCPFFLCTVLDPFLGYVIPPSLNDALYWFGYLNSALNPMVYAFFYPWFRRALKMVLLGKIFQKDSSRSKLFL
Experimental: The Expand High Fidelity PCR System (Roche Diagnostics) was used with 1.5 mM Mg^2+ and purified PCR products were cloned into pCR2.1-TOPO cloning vector (Invitrogen) following the instructions of the manufacturer. PCR products were subcloned into the pIRESneo2 vector (BD Clontech, Palo Alto, Calif.), and expression vectors were sequence verified before introduction in cell lines.
For the generation of stably transfected cell lines HEK293 cells were transfected with the pIRESneo2 expression plasmids containing the TAAR coding sequences (described above) with Lipofectamine 2000 (Invitrogen) according to the instructions of the manufacturer, and 24 hrs post transfection the culture medium was supplemented with 1 mg/ml G418 (Sigma, Buchs, Switzerland). After a culture period of about 10 d clones were isolated, expanded and tested for responsiveness to trace amines (all compounds purchased from Sigma) with the cAMP Biotrak Enzyme immunoassay (EIA) System (Amersham) following the non-acetylation EIA procedure provided by the manufacturer.
Cells at confluence were rinsed with ice-cold phosphate buffered saline without Ca^2+ and Mg^2+ containing 10 mM EDTA and pelleted by centrifugation at 1000 rpm for 5 min at 4° C. The pellet was then washed twice with ice-cold phosphate buffered saline and cell pellet was frozen immediately by immersion in liquid nitrogen and stored until use at −80° C. Cell pellet was then suspended in 20 ml HEPES-NaOH (20 mM), pH 7.4 containing 10 mM EDTA, and homogenized with a Polytron (PT 3000, Kinematica) at 10,000 rpm for 10 s. The homogenate was centrifuged at 48,000×g for 30 min at 4° C. and the pellet resuspended in 20 ml HEPES-NaOH (20 mM), pH 7.4 containing 0.1 mM EDTA (buffer A), and homogenized with a Polytron at 10,000 rpm for 10 s. The homogenate was then centrifuged at 48,000×g for 30 min at 4° C. and the pellet resuspended in 20 ml buffer A, and homogenized with a Polytron at 10,000 rpm for 10 s. Protein concentration was determined by the method of Pierce (Rockford, Ill.). […] Non-specific binding was defined as the amount of [^3H]-rac-2-(1,2,3,4-tetrahydro-1-naphthyl)-2-imidazoline bound in the presence of the appropriate unlabelled ligand (10 μM). Competing ligands were tested in a wide range of concentrations (10 pM-30 μM). […] Each experiment was performed in duplicate. All incubations were terminated by rapid filtration through UniFilter-96 plates (Packard Instrument Company) and glass filter GF/C, pre-soaked for at least 2 h in polyethylenimine 0.3%, and using a Filtermate 96 Cell Harvester (Packard Instrument Company). The tubes and filters were then washed 3 times with 1 ml aliquots of cold buffer B. Filters were not dried and soaked in Ultima gold (45 μl/well, Packard Instrument Company) and bound radioactivity was counted by a TopCount Microplate Scintillation Counter (Packard Instrument Company).

| Structure (SMILES) | Ki [µM] |
| --- | --- |
| O=C(Nc1cccc(Cl)c1)c1cnc(N2CCC2)c(Cl)c1 [Example 162, 6-Azetidin-1-yl-5-chloro-N-(3-chloro-phenyl)-nicotinamide] | 0.042 |
| COc1cccc(NC(=O)c2cccc(S(=O)(=O)N3CCCCCC3)c2)c1 [Example 170, 3-(Azepane-1-sulfonyl)-N-(3-methoxy-phenyl)-benzamide] | 0.024 |
| CC(C)c1cccc(NC(=O)c2ccc(N3CCCC3)c(C(F)(F)F)c2)c1 [Example 182, N-(3-Isopropyl-phenyl)-4-pyrrolidin-1-yl-3-trifluoro-methyl-benzamide] | 0.065 |
| O=C(Nc1cccc(Cl)c1)c1ccc(N2CCCC2)c(C(F)(F)F)c1 [Example 186, N-(3-Chloro-phenyl)-4-pyrrolidin-1-yl-3-trifluoro-methyl-benzamide] | 0.02 |
| COc1cccc(NC(=O)c2cnc(NCc3ccccc3)c(C(F)(F)F)c2)c1 [Example 199] | 0.0056 |
| COc1cccc(NC(=O)c2cnc(NC(C)C)c(C(F)(F)F)c2)c1 [Example 200] | 0.0597 |
| COc1cccc(NC(=O)c2cnc(N3CCCCC3)c(Cl)c2)c1 [Example 206] | 0.0207 |
| CCCCNc1ncc(C(=O)Nc2cccc(OC)c2)cc1Cl [Example 208] | 0.0463 |

Same assay, conditions: radioligand [3H]-rac-2-(1,2,3,4-tetrahydro-1-naphthyl)-2-imidazoline 60 nM, 4° C., 30 min, read-out: Ki value (μM) in mouse

| Structure (SMILES) | Ki [µM] |
| --- | --- |
| O=C(Nc1cccc(Cl)c1)c1cnc(N2CCCCC2)c(Cl)c1 [Example 163, 3′-Chloro-3,4,5,6-tetrahydro-2H-[1,2′]bipyridinyl-5′-carboxylicacid (3-chloro-phenyl)-amide] | 0.038 |
| CN1CCN(c2ncc(C(=O)Nc3cccc(Cl)c3)cc2Cl)CC1 [Example 164, 5-Chloro-N-(3-chloro-phenyl)-6-(4-methyl-piperazin-1-yl)-nicotinamide] | 0.001 |
| Cc1cnc(C)n1Cc1cccc(NC(=O)c2ccc(Cl)c(Cl)c2)c1 [Example 177, 3,4-Dichloro-N-[3-(2,5-dimethyl-imidazol-1-ylmethyl)-phenyl]-benzamide] | 0.049 |
| COc1cccc(NC(=O)c2cnc(Cl)c(C(F)(F)F)c2)c1 [Example 178, 6-Chloro-N-(3-methoxy-phenyl)-5-trifluoromethyl-nicotinamide] | 0.008 |
| COc1cccc(NC(=O)c2cnc(N3CCCC3)c(C(F)(F)F)c2)c1 [Example 179, N-(3-Methoxy-phenyl)-6-pyrrolidin-1-yl-5-trifluoromethyl-nicotinamide] | 0.002 |
| CCc1cccc(NC(=O)c2ccc(N3CCCC3)c(C(F)(F)F)c2)c1 [Example 180, N-(3-Ethyl-phenyl)-4-pyrrolidin-1-yl-3-trifluoromethyl-benzamide] | 0.021 |
| CCOc1cccc(NC(=O)c2ccc(N3CCCC3)c(C(F)(F)F)c2)c1 [Example 181, N-(3-Ethoxy-phenyl)-4-pyrrolidin-1-yl-3-trifluoro-methyl-benzamide] | 0.001 |
| CC(C)Oc1cccc(NC(=O)c2ccc(N3CCCC3)c(C(F)(F)F)c2)c1 [Example 183, N-(3-Isopropoxy-phenyl)-4-pyrrolidin-1-yl-3-trifluoro-methyl-benzamide] | 0.007 |
| CC(=O)c1cccc(NC(=O)c2ccc(N3CCCC3)c(C(F)(F)F)c2)c1 [Example 184, N-(3-Acetyl-phenyl)-4-pyrrolidin-1-yl-3-tri-fluoromethyl-benzamide] | 0.026 |
| O=C(Nc1cccc(F)c1)c1ccc(N2CCCC2)c(C(F)(F)F)c1 [Example 185, N-(3-Fluoro-phenyl)-4-pyrrolidin-1-yl-3-trifluoro-methyl-benzamide] | 0.009 |
| O=C(Nc1cccc(Br)c1)c1ccc(N2CCCC2)c(C(F)(F)F)c1 [Example 187, N-(3-Bromo-phenyl)-4-pyrrolidin-1-yl-3-trifluoro-methyl-benzamide] | 0.046 |
| Cc1cccc(NC(=O)c2ccc(N3CCCC3)c(C(F)(F)F)c2)c1 [Example 189, 4-Pyrrolidin-1-yl-N-m-tolyl-3-trifluoro-methyl-benzamide] | 0.016 |
| O=C(Nc1cccc(OC(F)F)c1)c1ccc(N2CCCC2)c(C(F)(F)F)c1 [Example 190, N-(3-Difluoro-methoxy-phenyl)-4-pyrrolidin-1-yl-3-trifluoro-methyl-benzamide] | 0.012 |
| O=C(Nc1cccc(OC(F)(F)C(F)F)c1)c1ccc(N2CCCC2)c(C(F)(F)F)c1 [Example 192, 4-Pyrrolidin-1-yl-N-[3-(1,1,2,2-tetrafluoro-ethoxy)-phenyl]-3-trifluoro-methyl-benzamide] | 0.039 |
| COc1cccc(NC(=O)c2ccc(N3CCCCCC3)c(C(F)(F)F)c2)c1 [Example 195, 4-Azepan-1-yl-N-(3-methoxy-phenyl)-3-trifluoromethyl-benzamide] | 0.011 |
| COc1cccc(NC(=O)c2ccc(N3CCC(C#N)CC3)c(C(F)(F)F)c2)c1 [Example 196, 4-(4-Cyano-piperidin-1-yl)-N-(3-methoxy-phenyl)-3-trifluoromethyl-benzamide] | 0.022 |
| COc1cccc(NC(=O)c2ccc(N3CCC(C(F)(F)F)CC3)c(C(F)(F)F)c2)c1 [Example 197, N-(3-Methoxy-phenyl)-3-trifluoromethyl-4-(4-trifluoromethyl-piperidin-1-yl)-benzamide] | 0.003 |
| COc1cccc(NC(=O)c2cnc(N3CCC(C)CC3)c(C(F)(F)F)c2)c1 [Example 201] | 0.0017 |
| COc1cccc(NC(=O)c2cnc(N3CCCC3)c(Cl)c2)c1 [Example 205] | 0.0101 |
| COc1cccc(NC(=O)c2cnc(N3CCC(C)CC3)c(Cl)c2)c1 [Example 207] | 0.0098 |
| O=C(Nc1cccc(Cl)c1)c1cnc(N2CCNCC2)c(Cl)c1 [Example 210, 5-Chloro-N-(3-chloro-phenyl)-6-piperazin-1-yl-nicotinamide] | 0.0348 |
| COc1cccc(NC(=O)c2ccc(Cl)c(C(F)(F)F)c2)c1 [Example 216, 4-Chloro-N-(3-methoxy-phenyl)-3-trifluoromethyl-benzamide] | 0.0058 |
| O=C(Nc1ccccc1)c1ccc(Cl)c(Cl)c1 [Example 217, 3,4-Dichloro-N-phenyl-benzamide] | 0.054 |
| O=C(Nc1cccc(Cl)c1)c1ccc(Cl)c(Cl)c1 [Example 218, 3,3′,4-Trichlorobenzanilide] | 0.06 |
| O=C(Nc1ccccc1)c1ccc([N+](=O)[O-])c(C(F)(F)F)c1 [Example 219, 3-Trifluoromethyl-4-nitro-N-phenyl-benzamide] | 0.067 |
| Cc1cccc(C(=O)Nc2ccc(Cl)c(Cl)c2)c1 [Example 220, N-(3,4-Dichloro-phenyl)-3-methyl-benzamide] | 0.068 |
| O=C(Nc1cccc(Cl)c1)c1ccc(Cl)c(Cl)c1 [Example 283, 3,4-Dichloro-N-(3-chloro-phenyl)-benzamide] | 0.06 |
| O=C(Nc1ccccc1)c1ccc(Cl)c(Cl)c1 [Example 319, 3,4-Dichloro-N-phenyl-benzamide] | 0.0543 |
| O=C(Nc1ccccc1)c1ccc([N+](=O)[O-])c(C(F)(F)F)c1 [Example 324, 4-Nitro-N-phenyl-3-trifluoromethyl-benzamide] | 0.0674 |
